Measured values reported in ChEMBL document CHEMBL4393657, “Tetrazole hybrids and their antifungal activities” (2019).
≈ marks a conversion by molar mass, not a printed value.

How the values were obtained:
Type in all cases: functional
Cryptococcus neoformans = assay: Antifungal activity against Cryptococcus neoformans LA314 assessed as reduction in fungal cell growth incubated for 48 hrs by broth microdilution method; details: LA314, 48 h
Nakaseomyces glabratus = assay: Antifungal activity against Candida glabrata assessed as reduction in fungal cell growth incubated for 48 hrs by broth microdilution method
Candida parapsilosis = assay: Antifungal activity against Candida parapsilosis ATCC 22019 assessed as reduction in fungal cell growth incubated for 48 hrs by broth microdilution method; details: Lodderomyces parapsilosis, ATCC 22019, 48 h
Pichia kudriavzevii = assay: Antifungal activity against Candida krusei assessed as reduction in fungal cell growth incubated for 48 hrs by broth microdilution method
Candida albicans = assay: Antifungal activity against Candida albicans assessed as reduction in fungal cell growth incubated for 48 hrs by broth microdilution method
Candida tropicalis = assay: Antifungal activity against Candida tropicalis assessed as reduction in fungal cell growth incubated for 48 hrs by broth microdilution method
Aspergillus niger = assay: Antifungal activity against Aspergillus niger assessed as reduction in fungal cell growth incubated for 72 hrs by broth microdilution method

Row | SMILES | MIC (Cryptococcus neoformans) [µg/mL] | MIC (Nakaseomyces glabratus) [µg/mL] | MIC (Candida parapsilosis) [µg/mL] | MIC (Pichia kudriavzevii) [µg/mL] | MIC (Candida albicans) [µg/mL] | MIC (Candida tropicalis) [µg/mL] | MIC (Aspergillus niger) [µg/mL]
1 | OC(Cn1cncn1)(Cn1nnc(CCN2CCN(Cc3ccccc3)CC2)n1)c1ccc(F)cc1F (stereo unspecified) | 1 to 16 (≈ 1.96 to 31.4 µM) | 1 to 16 (≈ 1.96 to 31.4 µM) | 1 to 16 (≈ 1.96 to 31.4 µM) | 1 to 16 (≈ 1.96 to 31.4 µM) | 1 to 16 (≈ 1.96 to 31.4 µM) | 1 to 16 (≈ 1.96 to 31.4 µM) | 1 to 16 (≈ 1.96 to 31.4 µM)
2 | C[C@H](n1nnc(CCN2CCN(c3ccccn3)CC2)n1)[C@](O)(Cn1cncn1)c1ccc(F)cc1F | 0.25 to 16 (≈ 0.49 to 31.3 µM) | 0.25 to 16 (≈ 0.49 to 31.3 µM) | 0.25 to 16 (≈ 0.49 to 31.3 µM) | 0.25 to 16 (≈ 0.49 to 31.3 µM) | 0.25 to 16 (≈ 0.49 to 31.3 µM) | 0.25 to 16 (≈ 0.49 to 31.3 µM) | 0.25 to 16 (≈ 0.49 to 31.3 µM)
3 | COc1ccc(N2CCN(CCc3nnn(CC(O)(Cn4cncn4)c4ccc(F)cc4F)n3)CC2)cc1 (stereo unspecified) | 1 to 16 (≈ 1.9 to 30.4 µM) | 1 to 16 (≈ 1.9 to 30.4 µM) | 1 to 16 (≈ 1.9 to 30.4 µM) | 1 to 16 (≈ 1.9 to 30.4 µM) | 1 to 16 (≈ 1.9 to 30.4 µM) | 1 to 16 (≈ 1.9 to 30.4 µM) | 1 to 16 (≈ 1.9 to 30.4 µM)
4 | CC(n1nnc(CCN2CCN(C(c3ccccc3)c3ccccc3)CC2)n1)C(O)(Cn1cncn1)c1ccc(F)cc1F (stereo unspecified) | 1 to 16 (≈ 1.67 to 26.7 µM) | 1 to 16 (≈ 1.67 to 26.7 µM) | 1 to 16 (≈ 1.67 to 26.7 µM) | 1 to 16 (≈ 1.67 to 26.7 µM) | 1 to 16 (≈ 1.67 to 26.7 µM) | 1 to 16 (≈ 1.67 to 26.7 µM) | 1 to 16 (≈ 1.67 to 26.7 µM)
5 | C[C@H](n1nnc(CCN2CCN(c3ccc(Cl)cc3)CC2)n1)[C@](O)(Cn1cncn1)c1ccc(F)cc1F | 0.25 to 16 (≈ 0.46 to 29.4 µM) | 0.25 to 16 (≈ 0.46 to 29.4 µM) | 0.25 to 16 (≈ 0.46 to 29.4 µM) | 0.25 to 16 (≈ 0.46 to 29.4 µM) | 0.25 to 16 (≈ 0.46 to 29.4 µM) | 0.25 to 16 (≈ 0.46 to 29.4 µM) | 0.25 to 16 (≈ 0.46 to 29.4 µM)
6 | OC(Cn1cncn1)(Cn1nnnc1CCN1CCN(c2ccccc2Cl)CC1)c1ccc(F)cc1F (stereo unspecified) | 0.5 to 16 (≈ 0.943 to 30.2 µM) | 0.5 to 16 (≈ 0.943 to 30.2 µM) | 0.5 to 16 (≈ 0.943 to 30.2 µM) | 0.5 to 16 (≈ 0.943 to 30.2 µM) | 0.5 to 16 (≈ 0.943 to 30.2 µM) | 0.5 to 16 (≈ 0.943 to 30.2 µM) | 0.5 to 16 (≈ 0.943 to 30.2 µM)
7 | CC(n1nnc(CCN2CCN(c3ccccn3)CC2)n1)C(O)(Cn1cncn1)c1ccc(F)cc1F (stereo unspecified) | 1 to 16 (≈ 1.96 to 31.3 µM) | 1 to 16 (≈ 1.96 to 31.3 µM) | 1 to 16 (≈ 1.96 to 31.3 µM) | 1 to 16 (≈ 1.96 to 31.3 µM) | 1 to 16 (≈ 1.96 to 31.3 µM) | 1 to 16 (≈ 1.96 to 31.3 µM) | 1 to 16 (≈ 1.96 to 31.3 µM)
8 | C[C@H](n1nnc(CCN2CCN(c3cccc(Cl)c3)CC2)n1)[C@](O)(Cn1cncn1)c1ccc(F)cc1F | 0.25 to 16 (≈ 0.46 to 29.4 µM) | 0.25 to 16 (≈ 0.46 to 29.4 µM) | 0.25 to 16 (≈ 0.46 to 29.4 µM) | 0.25 to 16 (≈ 0.46 to 29.4 µM) | 0.25 to 16 (≈ 0.46 to 29.4 µM) | 0.25 to 16 (≈ 0.46 to 29.4 µM) | 0.25 to 16 (≈ 0.46 to 29.4 µM)
9 | CC(n1nnc(CCN2CCN(c3ccc(Cl)cc3)CC2)n1)C(O)(Cn1cncn1)c1ccc(F)cc1F (stereo unspecified) | 1 to 16 (≈ 1.84 to 29.4 µM) | 1 to 16 (≈ 1.84 to 29.4 µM) | 1 to 16 (≈ 1.84 to 29.4 µM) | 1 to 16 (≈ 1.84 to 29.4 µM) | 1 to 16 (≈ 1.84 to 29.4 µM) | 1 to 16 (≈ 1.84 to 29.4 µM) | 1 to 16 (≈ 1.84 to 29.4 µM)
10 | COc1ccc(N2CCN(CCc3nnnn3CC(O)(Cn3cncn3)c3ccc(F)cc3F)CC2)cc1 (stereo unspecified) | 0.5 to 16 (≈ 0.951 to 30.4 µM) | 0.5 to 16 (≈ 0.951 to 30.4 µM) | 0.5 to 16 (≈ 0.951 to 30.4 µM) | 0.5 to 16 (≈ 0.951 to 30.4 µM) | 0.5 to 16 (≈ 0.951 to 30.4 µM) | 0.5 to 16 (≈ 0.951 to 30.4 µM) | 0.5 to 16 (≈ 0.951 to 30.4 µM)
11 | CC(n1nnc(CCN2CCN(c3c(Cl)cccc3Cl)CC2)n1)C(O)(Cn1cncn1)c1ccc(F)cc1F (stereo unspecified) | 1 to 16 (≈ 1.73 to 27.7 µM) | 1 to 16 (≈ 1.73 to 27.7 µM) | 1 to 16 (≈ 1.73 to 27.7 µM) | 1 to 16 (≈ 1.73 to 27.7 µM) | 1 to 16 (≈ 1.73 to 27.7 µM) | 1 to 16 (≈ 1.73 to 27.7 µM) | 1 to 16 (≈ 1.73 to 27.7 µM)
12 | CC(n1nnc(CCN2CCN(Cc3ccccc3)CC2)n1)C(O)(Cn1cncn1)c1ccc(F)cc1F (stereo unspecified) | 1 to 16 (≈ 1.91 to 30.6 µM) | 1 to 16 (≈ 1.91 to 30.6 µM) | 1 to 16 (≈ 1.91 to 30.6 µM) | 1 to 16 (≈ 1.91 to 30.6 µM) | 1 to 16 (≈ 1.91 to 30.6 µM) | 1 to 16 (≈ 1.91 to 30.6 µM) | 1 to 16 (≈ 1.91 to 30.6 µM)
13 | OC(Cn1cncn1)(Cn1nnnc1CCN1CCN(c2c(Cl)cccc2Cl)CC1)c1ccc(F)cc1F (stereo unspecified) | 0.5 to 16 (≈ 0.886 to 28.3 µM) | 0.5 to 16 (≈ 0.886 to 28.3 µM) | 0.5 to 16 (≈ 0.886 to 28.3 µM) | 0.5 to 16 (≈ 0.886 to 28.3 µM) | 0.5 to 16 (≈ 0.886 to 28.3 µM) | 0.5 to 16 (≈ 0.886 to 28.3 µM) | 0.5 to 16 (≈ 0.886 to 28.3 µM)
14 | COc1ccc(N2CCN(CCc3nnn([C@@H](C)[C@](O)(Cn4cncn4)c4ccc(F)cc4F)n3)CC2)cc1 | 0.25 to 16 (≈ 0.463 to 29.7 µM) | 0.25 to 16 (≈ 0.463 to 29.7 µM) | 0.25 to 16 (≈ 0.463 to 29.7 µM) | 0.25 to 16 (≈ 0.463 to 29.7 µM) | 0.25 to 16 (≈ 0.463 to 29.7 µM) | 0.25 to 16 (≈ 0.463 to 29.7 µM) | 0.25 to 16 (≈ 0.463 to 29.7 µM)
15 | CC(n1nnnc1CCN1CCN(C(c2ccccc2)c2ccccc2)CC1)C(O)(Cn1cncn1)c1ccc(F)cc1F (stereo unspecified) | 0.5 to 16 (≈ 0.834 to 26.7 µM) | 0.5 to 16 (≈ 0.834 to 26.7 µM) | 0.5 to 16 (≈ 0.834 to 26.7 µM) | 0.5 to 16 (≈ 0.834 to 26.7 µM) | 0.5 to 16 (≈ 0.834 to 26.7 µM) | 0.5 to 16 (≈ 0.834 to 26.7 µM) | 0.5 to 16 (≈ 0.834 to 26.7 µM)
16 | OC(Cn1cncn1)(Cn1nnnc1CCN1CCN(c2ccc(F)cc2)CC1)c1ccc(F)cc1F (stereo unspecified) | 0.5 to 16 (≈ 0.974 to 31.2 µM) | 0.5 to 16 (≈ 0.974 to 31.2 µM) | 0.5 to 16 (≈ 0.974 to 31.2 µM) | 0.5 to 16 (≈ 0.974 to 31.2 µM) | 0.5 to 16 (≈ 0.974 to 31.2 µM) | 0.5 to 16 (≈ 0.974 to 31.2 µM) | 0.5 to 16 (≈ 0.974 to 31.2 µM)
17 | OC(Cn1cncn1)(Cn1nnnc1CCN1CCN(C(c2ccccc2)c2ccccc2)CC1)c1ccc(F)cc1F (stereo unspecified) | 0.5 to 16 (≈ 0.854 to 27.3 µM) | 0.5 to 16 (≈ 0.854 to 27.3 µM) | 0.5 to 16 (≈ 0.854 to 27.3 µM) | 0.5 to 16 (≈ 0.854 to 27.3 µM) | 0.5 to 16 (≈ 0.854 to 27.3 µM) | 0.5 to 16 (≈ 0.854 to 27.3 µM) | 0.5 to 16 (≈ 0.854 to 27.3 µM)
18 | C[C@H](n1nnc(CCN2CCN(c3c(Cl)cccc3Cl)CC2)n1)[C@](O)(Cn1cncn1)c1ccc(F)cc1F | 0.25 to 16 (≈ 0.432 to 27.7 µM) | 0.25 to 16 (≈ 0.432 to 27.7 µM) | 0.25 to 16 (≈ 0.432 to 27.7 µM) | 0.25 to 16 (≈ 0.432 to 27.7 µM) | 0.25 to 16 (≈ 0.432 to 27.7 µM) | 0.25 to 16 (≈ 0.432 to 27.7 µM) | 0.25 to 16 (≈ 0.432 to 27.7 µM)
